# Measured values from US20220185797A1, “SELECTIVE FOXO INHIBITORS FOR TREATMENT OF DIABETES AND OTHER DISORDERS RELATED TO IMPAIRED PANCREATIC FUNCTION” (THE TRUSTEES OF COLUMBIA UNIVERSITYIN THE CITY OF NEW YORK, priority 2019, published 2022).
# Where two headings read alike, the source gives them in different places. Marks after values point to notes of the source that are not given here.
# Assays:
# human FOXO1 = molecular target: T1, human FOXO1 (Homo sapiens, UniProt Q12778); test: FOXO1 transcriptional reporter assay (insulin response element firefly luciferase / Renilla) in HEK293 cells; assay type: cell-based; details: HEK293 cells transfected with human FOXO1, 24 hours, class combines IC50 and maximal inhibition; read-out: IC50 (active range)
# T1 construct: expressed in transfected cells; host or cells: HEK293
# Procedure: The activities of FOXO1 inhibitors were determined by a transcriptional reporter assay. HEK293 cells were plated onto 96-well plates with moat at 20000 cells per well in Eagle's Minimum Essential Medium (EMEM) containing 1% fetal bovine serum, and incubated overnight at 37° C. and 5% CO2. […] Compounds were then added at varying final concentrations ranging from 50 μM to 1 nM, with final DMSO concentration of 0.5% in each well. Duplicate wells were included for each treatment condition. Cells were incubated for 24 hours at 37° C. and 5% CO2. Luciferase activities in each well were measured using Dual-Glo Luciferase Assay System (Promega) according to manufacturer's protocol and a plate reader suitable for luminescence detection. Firefly luciferase activity was divided by Renilla luciferase activity to calculate a ratio for each well. The ratio in wells containing cells transfected with all 3 plasmids listed above and receiving only DMSO without compound addition was set to 100%. The ratio in wells containing cells transfected with plasmids (1), (3), and 5 ng of pcDNA3.1 containing the open reading frame of red fluorescent protein (instead of human FOXO1) and treated with DMSO only was set to 0%. The ratio in each well receiving compound treatment was normalized and expressed as a percentage. Data were fit by 4-parameter logistic regression to determine IC50 and maximal inhibition values. Each compound was tested in a minimum of 2 independent experiments.
# [1] = Metabolic stability in mouse microsomes; assay type: in vitro ADME; details: for microsomal CLint at 0.75 h, 0.3 μM: CD-1, liver microsomes, pH 7.4, in vitro intrinsic clearance; for microsomal CLint at 0.75 h, 0.3 μM / % remaining at 45 min: Mouse microsome, 0.3 μM; for metabolic stability compared with Compound 10 (Langlet et al.): mouse microsomes, and/or human hepatocytes, in words
# [2] = molecular target: T2, acetylcholinesterase (AChE) (Homo sapiens, UniProt P22303); test: biochemical; assay type: biochemical
# T2 construct: host or cells: CHO cells
# Procedure: The protein source was Human (recombinant) Expressed in CHO cells. The enzymatic activity was studied. The method employed was the detection of conversion of acetylthiocholine to thiocholine using DTNB. The substrate employed was Acetylthiocholine.
# Enzyme and test compound were pre-incubated for 15 minutes at room temp before substrate addition. Acetylthiocholine and DTNB (5,5′-dithiobis-(2-nitrobenzoic acid)) were added and incubated at room temperature for 30 minutes. Signal was detected by measuring absorbance at 405 nm.
# Percentage inhibition was calculated using the following formula: […]
# [3] = Metabolic stability in human hepatocytes; details: for % remaining at 90 min: Human hepatocyte, 0.3 μM; for hepatocyte CLint at 1.5 h, 0.3 µM: human, hepatocytes (cryopreserved)
# Procedure: An in vitro system comprising human Hepatocytes was employed. The incubation conditions and sampling time point of test article and positive control were as follows. Test articles (0.3 μM) and positive controls (verapamil) were incubated in a 0.2mL volume in 96-well format. Stock solutions were received at 10 mM in DMSO and the Final DMSO % in incubation was 0.01%. […] Incubation plates were shaken on an automated orbital shaker at 600 rpm. Incubation time points were: 0, 15, 30, 60, 90 minutes.
# Following this pre-incubation period, the test compound (DMSO stock solution) was added to the incubation plate, which was mixed to initiate the incubation. The reaction plate was sampled (20 μL aliquot) at the pre-determined incubation time points, the sample quenched with 80 μL of Stop solution with internal standard (Acetonitrile with 0.1% (v/v) formic acid containing 100 nM labetalol, 20 nM imipramine, and 200 nM diclofenac) and the samples were mixed well. After quenching the reaction, the reaction mixture was centrifuged and the samples were submitted for LC-MS/MS analysis. Depletion rate (kdep, min^−1) and % compound remaining was calculated by peak area ratio (PAR) with internal standard at each time point relative to time 0 min. The estimation of Clint(Unscaled) (in μl/min/10^6 cells) was performed with the following equation:
# [4] = Metabolic stability in dog microsomes; details: for % remaining at 45 min: Dog microsome; for metabolic stability compared with Compound 9 (Langlet et al.): dog and/or human microsomes, in words
# [5] = Metabolic stability in human microsomes; details: for % remaining at 45 min: Human microsome
# [6] = selectivity studies, Table 4, read-out: AChE IC50
# [7] = Human recombinant AChE expressed in CHO cells, read-out: AChE Inhibitor IC50
# T1 sequence (Q12778 whole entry): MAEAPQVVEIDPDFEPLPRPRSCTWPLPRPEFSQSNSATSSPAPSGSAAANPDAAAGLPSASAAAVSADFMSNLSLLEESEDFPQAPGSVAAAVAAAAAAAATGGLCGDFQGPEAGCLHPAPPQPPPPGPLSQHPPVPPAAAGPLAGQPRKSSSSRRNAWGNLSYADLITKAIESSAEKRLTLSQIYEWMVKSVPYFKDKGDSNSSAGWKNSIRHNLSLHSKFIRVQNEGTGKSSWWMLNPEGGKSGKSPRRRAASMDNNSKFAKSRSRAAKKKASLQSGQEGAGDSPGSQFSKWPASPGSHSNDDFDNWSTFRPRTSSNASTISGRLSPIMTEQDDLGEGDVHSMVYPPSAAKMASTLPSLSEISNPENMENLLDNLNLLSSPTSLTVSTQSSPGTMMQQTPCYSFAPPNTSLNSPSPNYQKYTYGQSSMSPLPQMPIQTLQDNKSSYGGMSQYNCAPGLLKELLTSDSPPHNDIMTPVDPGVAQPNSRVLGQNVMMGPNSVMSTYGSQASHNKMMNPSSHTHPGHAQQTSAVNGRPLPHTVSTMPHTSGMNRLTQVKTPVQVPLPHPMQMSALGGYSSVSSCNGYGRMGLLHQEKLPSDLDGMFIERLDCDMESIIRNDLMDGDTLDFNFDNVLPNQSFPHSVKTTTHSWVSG
# T2 sequence (P22303 32-614): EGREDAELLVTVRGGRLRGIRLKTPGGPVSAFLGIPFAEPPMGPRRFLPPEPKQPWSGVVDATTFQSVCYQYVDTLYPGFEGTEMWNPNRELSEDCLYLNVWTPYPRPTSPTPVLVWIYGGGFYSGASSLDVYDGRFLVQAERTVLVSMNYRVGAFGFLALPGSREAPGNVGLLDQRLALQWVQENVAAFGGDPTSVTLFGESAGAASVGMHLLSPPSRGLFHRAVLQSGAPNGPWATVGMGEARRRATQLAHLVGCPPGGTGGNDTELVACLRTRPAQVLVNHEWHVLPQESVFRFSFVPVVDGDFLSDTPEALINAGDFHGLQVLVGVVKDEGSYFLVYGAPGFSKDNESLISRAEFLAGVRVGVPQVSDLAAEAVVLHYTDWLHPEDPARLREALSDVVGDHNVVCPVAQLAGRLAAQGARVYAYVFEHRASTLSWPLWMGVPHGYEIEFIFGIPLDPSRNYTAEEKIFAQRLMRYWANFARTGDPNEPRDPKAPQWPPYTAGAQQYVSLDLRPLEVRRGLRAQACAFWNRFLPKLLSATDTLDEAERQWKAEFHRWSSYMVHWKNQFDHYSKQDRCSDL
structure (smiles),measurement,setting,value
"CN1CCN(c2ccc(C(=O)Nc3cc(-c4nc5ccccc5[nH]4)n[nH]3)cc2)CC1 [Compound 2, reference compound]",IC50,human FOXO1,< 0.05 µM
same,"microsomal CLint at 0.75 h, 0.3 μM",[1],206 µL/min/mg
same,% remaining at 45 min,[1],10%
same,IC50,[2]; [6],1.71 µM
same,% remaining at 90 min,[3],22%
same,"hepatocyte CLint at 1.5 h, 0.3 µM",[3],18 µL/min/1e6 cells
O=C(Nc1cc(-c2nc3ccccc3[nH]2)n[nH]1)c1ccc(N2CCNCC2)cc1 [Compound 36],"microsomal CLint at 0.75 h, 0.3 μM",[1],41 µL/min/mg
same,% remaining at 45 min,[1],68%
same,metabolic stability compared with Compound 10 (Langlet et al.),[1],significantly more stable
same,IC50,[2]; [7],> 10 µM
same,% remaining at 90 min,[3],110 * %
same,"hepatocyte CLint at 1.5 h, 0.3 µM",[3],2.6 µL/min/1e6 cells
COc1ccc(C(=O)Nc2cc(-c3nc4cc(C(F)(F)F)ccc4[nH]3)[nH]n2)cc1Cl [Compound 86],IC50,human FOXO1,< 1 µM
COc1ccc(C(=O)Nc2cc(-c3nc4c(C(F)(F)F)cccc4[nH]3)[nH]n2)cc1Cl [Compound 85],IC50,human FOXO1,< 1 µM
COc1cc(C(=O)Nc2cc(-c3nc4ccccc4[nH]3)n[nH]2)ccc1Cl [Compound 20],% remaining at 45 min,[4],53%
same,metabolic stability compared with Compound 9 (Langlet et al.),[4],significantly more stable
same,"microsomal CLint at 0.75 h, 0.3 μM","[4]; dog, microsomes, pH 7.4",58 µL/min/mg
same,% remaining at 45 min,[5],52%
same,"microsomal CLint at 0.75 h, 0.3 μM","[5]; human, microsomes, pH 7.4",57 µL/min/mg
CC(=O)N1CCN(c2ccc(C(=O)Nc3cc(-c4nc5ccccc5[nH]4)n[nH]3)cc2)CC1 [Compound 35],IC50,human FOXO1,< 1 µM
same,"microsomal CLint at 0.75 h, 0.3 μM",[1],70 µL/min/mg
same,% remaining at 45 min,[1],44%
same,metabolic stability compared with Compound 10 (Langlet et al.),[1],significantly more stable
CN1CCC(c2ccc(C(=O)Nc3cc(-c4nc5ccccc5[nH]4)n[nH]3)cc2)CC1 [Compound 42],IC50,human FOXO1,< 1 µM
COc1ccc(C(=O)Nc2cc(-c3nc4cc(OC(F)(F)F)ccc4[nH]3)[nH]n2)cc1Cl [Compound 84],IC50,human FOXO1,1 to 10 µM
CC(=O)Nc1cc(-c2nc3ccccc3[nH]2)n[nH]1 [Compound 29],IC50,human FOXO1,> 10 µM
O=C(Nc1cc(-c2nc3ccccc3[nH]2)n[nH]1)c1ccc(O)c(Cl)c1 [Compound 24],% remaining at 45 min,[4],88%
same,metabolic stability compared with Compound 9 (Langlet et al.),[4],significantly more stable
same,microsomal CLint at 0.3 μM,"[4]; dog, microsomes, pH 7.4",< 20 µL/min/mg
same,% remaining at 45 min,[5],93%
same,microsomal CLint at 0.3 μM,"[5]; human, microsomes, pH 7.4",< 20 µL/min/mg
"COc1ccc(C(=O)Nc2cc(-c3nc4ccccc4[nH]3)n[nH]2)cc1Cl [Compound 1, reference compound]",% remaining at 45 min,[4],12%
same,"microsomal CLint at 0.75 h, 0.3 μM","[4]; dog, microsomes, pH 7.4",185 µL/min/mg
same,% remaining at 45 min,[5],3.2%
same,"microsomal CLint at 0.75 h, 0.3 μM","[5]; human, microsomes, pH 7.4",306 µL/min/mg
COc1ccc(C(=O)Nc2cc(-c3nc4c(F)cccc4[nH]3)[nH]n2)cc1Cl [Compound 73],% remaining at 45 min,[4],31%
same,metabolic stability compared with Compound 9 (Langlet et al.),[4],significantly more stable
same,"microsomal CLint at 0.75 h, 0.3 μM","[4]; dog, microsomes, pH 7.4",104 µL/min/mg
same,% remaining at 45 min,[5],13%
same,"microsomal CLint at 0.75 h, 0.3 μM","[5]; human, microsomes, pH 7.4",184 µL/min/mg
O=C(Nc1cc(-c2nc3ccccc3[nH]2)[nH]n1)c1ccc(N2CCOCC2)cc1 [Compound 67],"microsomal CLint at 0.75 h, 0.3 μM",[1],52 µL/min/mg
same,% remaining at 45 min,[1],58%
same,metabolic stability compared with Compound 10 (Langlet et al.),[1],significantly more stable
same,IC50,[2]; [7],> 10 µM
Nc1cc(-c2nc3ccccc3[nH]2)n[nH]1 [Compound 32],IC50,human FOXO1,> 10 µM
COc1ccc(C(=O)N(C)c2cc(-c3nc4ccccc4[nH]3)n[nH]2)cc1Cl [Compound 37],IC50,[2]; [6],> 10 µM
